{
  "source": "ChEMBL document CHEMBL1201862",
  "about": "“PubChem BioAssay data set” (2004)",
  "assay_in_all_cases": "NCI-60 cell line screen, 48 h",
  "key": {"[1]": {"tested_on": "Hs-578T"}, "[2]": {"tested_on": "BT-549"}, "[3]": {"tested_on": "786-0"}, "[4]": {"tested_on": "KM-20L2"}, "[5]": {"tested_on": "RXF 631"}, "[6]": {"tested_on": "DMS-114"}, "[7]": {"tested_on": "XF498"}, "[8]": {"tested_on": "DLD-1"}, "[9]": {"tested_on": "LXFL 529"}},
  "note": "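In this assay, cells in 96-well plates receive the compound at five concentrations for 48 hours. Endpoints are linearly interpolated between the surrounding concentrations. GI50: concentration for 50% inhibition of growth.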 Calls of active or inactive are those of the source. No stated cut-off is given here; in the data, active = GI50 up to about 1.1 µM and inactive = higher. Non-standard residues stand in square brackets, D forms with d. Residues, ends and D or L forms follow the SMILES beside them. ξ: configuration not given here. Pentanoyl(2-O,4-OH,5-Cl) = O=C(O)C(O)CC(O)CCl; Ile(3ξ) = CCC(C)[C@H](N)C(=O)O; NMeV = CN[C@H](C(=O)O)C(C)C; NMeA = CN[C@@H](C)C(=O)O; βAla = NCCC(=O)O",
  "data": [
    {"smiles": "Nc1ccc(N(S(=O)(=O)c2ccccc2)S(=O)(=O)c2ccccc2)c(Cl)c1", "values": [
      {"measurement": "GI50", "setting": "[1]", "value": "64 µM (inactive)"},
      {"measurement": "GI50", "setting": "[2]", "value": "56.5 µM (inactive)"},
      {"measurement": "GI50", "setting": "[3]", "value": "81.1 µM (inactive)"}
    ]},
    {"smiles": "O=C1CCCCC2N(C(c3ccccc3)c3ccccc3)CC[C@@]12c1ccccc1.O=C1CCCC[C@H]2N(C(c3ccccc3)c3ccccc3)CC[C@@]12c1ccccc1", "note": "(stereo partly specified)", "values": [
      {"measurement": "GI50", "setting": "[4]", "value": "> 10 µM (inactive)"},
      {"measurement": "GI50", "setting": "[5]", "value": "3.88 µM (inactive)"},
      {"measurement": "GI50", "setting": "[6]", "value": "5.19 µM (inactive)"}
    ]},
    {"smiles": "CN(C)CCCNC(=O)N/N=C/c1ccccc1", "values": [
      {"measurement": "GI50", "setting": "[7]", "value": "> 100 µM (inactive)"},
      {"measurement": "GI50", "setting": "[6]", "value": "> 100 µM (inactive)"},
      {"measurement": "GI50", "setting": "[8]", "value": "> 100 µM (inactive)"}
    ]},
    {"smiles": "Cc1ccc(S(=O)(=O)N(C=O)N=C2CCN(Cc3ccccc3)CC2)cc1", "values": [
      {"measurement": "GI50", "setting": "[3]", "value": "> 100 µM (inactive)"},
      {"measurement": "GI50", "setting": "[4]", "value": "> 100 µM (inactive)"},
      {"measurement": "GI50", "setting": "[7]", "value": "> 100 µM (inactive)"},
      {"measurement": "GI50", "setting": "[5]", "value": "> 100 µM (inactive)"},
      {"measurement": "GI50", "setting": "[9]", "value": "> 100 µM (inactive)"},
      {"measurement": "GI50", "setting": "[8]", "value": "> 100 µM (inactive)"}
    ]},
    {"smiles": "CSCCC(NC(=O)OCc1ccccc1)P(=O)(O)c1ccccc1", "note": "(stereo unspecified)", "values": [
      {"measurement": "GI50", "setting": "[1]", "value": "> 100 µM (inactive)"}
    ]},
    {"smiles": "CCOP(=O)(CN=C(c1ccccc1)c1ccccc1)OCC", "values": [
      {"measurement": "GI50", "setting": "[1]", "value": "> 100 µM (inactive)"}
    ]},
    {"smiles": "Oc1c(Br)ccc2cccnc12", "values": [
      {"measurement": "GI50", "setting": "[1]", "value": "3.21 µM (inactive)"},
      {"measurement": "GI50", "setting": "[2]", "value": "7.48 µM (inactive)"},
      {"measurement": "GI50", "setting": "[3]", "value": "3.91 µM (inactive)"}
    ]},
    {"smiles": "C=CCC12CC(=O)C=C1CCC1(C2)OCCO1", "note": "(stereo unspecified)", "values": [
      {"measurement": "GI50", "setting": "[3]", "value": "> 100 µM (inactive)"},
      {"measurement": "GI50", "setting": "[4]", "value": "> 100 µM (inactive)"},
      {"measurement": "GI50", "setting": "[5]", "value": "> 100 µM (inactive)"},
      {"measurement": "GI50", "setting": "[9]", "value": "> 100 µM (inactive)"},
      {"measurement": "GI50", "setting": "[8]", "value": "> 100 µM (inactive)"}
    ]},
    {"smiles": "N#CC1=C(O)NC(O)=C(C#N)C1c1c(Cl)cccc1Cl", "values": [
      {"measurement": "GI50", "setting": "[4]", "value": "34.8 µM (inactive)"},
      {"measurement": "GI50", "setting": "[7]", "value": "61.4 µM (inactive)"},
      {"measurement": "GI50", "setting": "[6]", "value": "18.8 µM (inactive)"},
      {"measurement": "GI50", "setting": "[8]", "value": "16.7 µM (inactive)"}
    ]},
    {"smiles": "Cc1ccc(C#CS(=O)(=O)C(F)(F)F)cc1", "values": [
      {"measurement": "GI50", "setting": "[4]", "value": "> 100 µM (inactive)"},
      {"measurement": "GI50", "setting": "[7]", "value": "> 100 µM (inactive)"},
      {"measurement": "GI50", "setting": "[6]", "value": "> 100 µM (inactive)"},
      {"measurement": "GI50", "setting": "[8]", "value": "> 100 µM (inactive)"}
    ]},
    {"smiles": "N#Cc1c(NC(=S)NC(=O)c2ccccc2)nc2c(c1-c1ccccc1)CCCC2", "values": [
      {"measurement": "GI50", "setting": "[1]", "value": "17 µM (inactive)"},
      {"measurement": "GI50", "setting": "[2]", "value": "30.5 µM (inactive)"}
    ]},
    {"smiles": "COc1ccc(C2c3cc4c(cc3OC(NCCO)C2C)OCO4)cc1", "note": "(stereo unspecified)", "values": [
      {"measurement": "GI50", "setting": "[1]", "value": "19.3 µM (inactive)"},
      {"measurement": "GI50", "setting": "[2]", "value": "16.7 µM (inactive)"}
    ]},
    {"smiles": "CC(C)CC(N)C(=O)NC(CNC(CCC(N)=O)C(=O)NC(CC(C)C)C(=O)NC(CC(C)C)C(=O)O)Cc1ccc2ccccc2c1", "note": "(stereo unspecified)", "values": [
      {"measurement": "GI50", "setting": "[1]", "value": "> 10 µM (inactive)"},
      {"measurement": "GI50", "setting": "[2]", "value": "> 10 µM (inactive)"},
      {"measurement": "GI50", "setting": "[3]", "value": "> 10 µM (inactive)"}
    ]},
    {"smiles": "COC1C(O)C(n2ncc3c(SC)nc(SC)nc32)OC1C(O)CO", "note": "(stereo unspecified)", "values": [
      {"measurement": "GI50", "setting": "[4]", "value": "> 100 µM (inactive)"},
      {"measurement": "GI50", "setting": "[7]", "value": "> 100 µM (inactive)"},
      {"measurement": "GI50", "setting": "[6]", "value": "> 100 µM (inactive)"},
      {"measurement": "GI50", "setting": "[8]", "value": "> 100 µM (inactive)"}
    ]},
    {"smiles": "Cc1c(Cl)c(=O)oc2cc(OCC(=O)c3ccccc3)ccc12", "values": [
      {"measurement": "GI50", "setting": "[1]", "value": "> 100 µM (inactive)"},
      {"measurement": "GI50", "setting": "[2]", "value": "> 100 µM (inactive)"}
    ]},
    {"smiles": "O=C1C=C(Sc2ccccc2)c2nccc3c2c1nc1ccccc13", "values": [
      {"measurement": "GI50", "setting": "[1]", "value": "15.8 µM (inactive)"},
      {"measurement": "GI50", "setting": "[2]", "value": "16 µM (inactive)"},
      {"measurement": "GI50", "setting": "[3]", "value": "16.9 µM (inactive)"}
    ]},
    {"smiles": "N#CCCC(CCC#N)(CCC#N)NO", "values": [
      {"measurement": "GI50", "setting": "[1]", "value": "> 100 µM (inactive)"},
      {"measurement": "GI50", "setting": "[2]", "value": "> 100 µM (inactive)"},
      {"measurement": "GI50", "setting": "[3]", "value": "> 100 µM (inactive)"}
    ]},
    {"smiles": "CCOC(=O)c1c[nH]c2cc3c(cc2c1=O)CCS3(=O)=O.CCOC(=O)c1c[nH]c2ccc3c(c2c1=O)S(=O)(=O)CC3", "values": [
      {"measurement": "GI50", "setting": "[4]", "value": "> 100 µM (inactive)"},
      {"measurement": "GI50", "setting": "[7]", "value": "> 100 µM (inactive)"},
      {"measurement": "GI50", "setting": "[6]", "value": "> 100 µM (inactive)"},
      {"measurement": "GI50", "setting": "[8]", "value": "> 100 µM (inactive)"}
    ]},
    {"smiles": "O=C1NC(=O)C(CCO)(c2ccccc2)C(=O)N1", "values": [
      {"measurement": "GI50", "setting": "[4]", "value": "> 100 µM (inactive)"},
      {"measurement": "GI50", "setting": "[7]", "value": "> 68.4 µM (inactive)"},
      {"measurement": "GI50", "setting": "[6]", "value": "> 100 µM (inactive)"},
      {"measurement": "GI50", "setting": "[8]", "value": "> 100 µM (inactive)"}
    ]},
    {"smiles": "COc1ccc2[nH]c3c(C)c4ccncc4c(C)c3c2c1", "values": [
      {"measurement": "GI50", "setting": "[4]", "value": "0.169 µM (active)"},
      {"measurement": "GI50", "setting": "[7]", "value": "2.7 µM (inactive)"},
      {"measurement": "GI50", "setting": "[6]", "value": "0.446 µM (active)"},
      {"measurement": "GI50", "setting": "[8]", "value": "0.123 µM (active)"}
    ]},
    {"smiles": "O=[N+]([O-])c1cccc2nccc(NCC(O)CO)c12", "note": "(stereo unspecified)", "values": [
      {"measurement": "GI50", "setting": "[1]", "value": "7.8 µM (inactive)"},
      {"measurement": "GI50", "setting": "[2]", "value": "14.2 µM (inactive)"},
      {"measurement": "GI50", "setting": "[3]", "value": "18 µM (inactive)"}
    ]},
    {"smiles": "CC(C(=O)NCCNC(=O)CCCC(=O)N(C)O)C(=O)NCCNC(=O)CCCC(=O)N(C)O", "values": [
      {"measurement": "GI50", "setting": "[1]", "value": "> 100 µM (inactive)"}
    ]},
    {"smiles": "O=C/C(=C1/C=Cc2cc([N+](=O)[O-])ccc2S1)c1ccccc1", "values": [
      {"measurement": "GI50", "setting": "[1]", "value": "> 100 µM (inactive)"},
      {"measurement": "GI50", "setting": "[3]", "value": "> 100 µM (inactive)"}
    ]},
    {"smiles": "O=C(O)c1ccc(Nc2c3ccccc3nc3ccccc23)cc1", "values": [
      {"measurement": "GI50", "setting": "[4]", "value": "> 100 µM (inactive)"},
      {"measurement": "GI50", "setting": "[6]", "value": "> 100 µM (inactive)"}
    ]},
    {"smiles": "CCC(C)[C@@H]1NC(=O)[C@@H]2CCCN2C(=O)C(CC(O)CCl)OC(=O)CCNC(=O)[C@H](C)N(C)C(=O)[C@H](C(C)C)N(C)C1=O", "note": "(stereo partly specified) (cyclo([Ile(3ξ)][NMeV][NMeA][βAla][Pentanoyl(2-O,4-OH,5-Cl)]P))", "values": [
      {"measurement": "GI50", "setting": "[1]", "value": "> 91.6 µM (inactive)"},
      {"measurement": "GI50", "setting": "[2]", "value": "> 100 µM (inactive)"}
    ]},
    {"smiles": "Nc1ccccc1Sc1ccc(Cl)cc1", "values": [
      {"measurement": "GI50", "setting": "[4]", "value": "20.9 µM (inactive)"},
      {"measurement": "GI50", "setting": "[9]", "value": "38.2 µM (inactive)"},
      {"measurement": "GI50", "setting": "[6]", "value": "21.2 µM (inactive)"},
      {"measurement": "GI50", "setting": "[8]", "value": "34.6 µM (inactive)"}
    ]},
    {"smiles": "c1ccc2c(c1)NCc1cc3ccccc3nc1O2", "values": [
      {"measurement": "GI50", "setting": "[7]", "value": "> 100 µM (inactive)"},
      {"measurement": "GI50", "setting": "[6]", "value": "99.5 µM (inactive)"},
      {"measurement": "GI50", "setting": "[8]", "value": "> 100 µM (inactive)"}
    ]}
  ]
}
